According to the supplement of paper PMC10307832:

Key:
Experiment in all cases: relative viability (nuclei count vs DMSO), 5 days (fraction); higher = more cells survive
Shikonin + Lapatinib = compound: CC(C)=CC[C@@H](O)C1=CC(=O)c2c(O)ccc(O)c2C1=O [Shikonin] + CS(=O)(=O)CCNCc1ccc(-c2ccc3ncnc(Nc4ccc(OCc5cccc(F)c5)c(Cl)c4)c3c2)o1 [Lapatinib] (partner 2 µM)
Method in brief: (§1)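 Lung cancer cell lines in 1536-well plates got either a single drug or a fixed anchor-drug dose together with five library-drug doses (not always all listed) in √10 steps, by pin tool, on the day after seeding. Nuclei were counted after 5 days, and relative viability is the treated-to-vehicle ratio of nuclei counts. Values are medians of duplicate plates.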

Shikonin + Foretinib = compound: CC(C)=CC[C@@H](O)C1=CC(=O)c2c(O)ccc(O)c2C1=O [Shikonin] + COc1cc2c(Oc3ccc(NC(=O)C4(C(=O)Nc5ccc(F)cc5)CC4)cc3F)ccnc2cc1OCCCN1CCOCC1 [Foretinib] (partner 0.25 µM)
Method in brief: as §1

[1] = compound: CC(C)N(CCCNC(=O)Nc1ccc(C(C)(C)C)cc1)C[C@H]1O[C@@H](n2ccc3c(N)ncnc32)[C@H](O)[C@@H]1O + O=C(c1cc(Cc2n[nH]c(=O)c3ccccc23)ccc1F)N1CCN(C(=O)C2CC2)CC1 [Olaparib] (partner 8 µM)
Method in brief: as §1

[2] = compound: CC(C)N(CCCNC(=O)Nc1ccc(C(C)(C)C)cc1)C[C@H]1O[C@@H](n2ccc3c(N)ncnc32)[C@H](O)[C@@H]1O + COc1cccc2cc(-c3nc([C@H]4CC[C@H](C(=O)O)CC4)n4ncnc(N)c34)[nH]c12 [OSI-027] (partner 0.5 µM)
Method in brief: as §1

Row | Cell Line | relative viability (Shikonin + Lapatinib; first compound 0.01 µM) | relative viability (Shikonin + Lapatinib; first compound 0.1 µM) | relative viability (Shikonin + Lapatinib; first compound 0.3162 µM) | relative viability (Shikonin + Lapatinib; first compound 1 µM) | relative viability (Shikonin + Foretinib; first compound 0.01 µM) | relative viability (Shikonin + Foretinib; first compound 0.1 µM) | relative viability (Shikonin + Foretinib; first compound 0.3162 µM) | relative viability (Shikonin + Foretinib; first compound 1 µM) | relative viability ([1]; first compound 0.08 µM) | relative viability ([1]; first compound 0.253 µM) | relative viability ([1]; first compound 0.8 µM) | relative viability ([1]; first compound 2.53 µM) | relative viability ([1]; first compound 8 µM) | relative viability ([2]; first compound 0.08 µM) | relative viability ([2]; first compound 0.253 µM) | relative viability ([2]; first compound 0.8 µM) | relative viability ([2]; first compound 2.53 µM) | relative viability ([2]; first compound 8 µM)
1 | NCI-H1666 | 0.585 | 0.779 | 0.657 | 0.853 | 0.932 | 1.02 | 1.01 | 0.961 | 0.704 | 0.755 | 0.828 | 0.739 | 0.698 | 0.745 | 1.04 | 0.611 | 0.829 | 0.755
2 | NCI-H1734 | 1.17 | 1.25 | 1.02 | 1.09 | 0.762 | 0.681 | 0.869 | 0.915 | 0.574 | 0.608 | 0.539 | 0.662 | 0.529 | 0.563 | 0.612 | 0.627 | 0.564 | 0.6
3 | NCI-H1755 | 1.13 | 1.27 | 1.12 | 1.09 | 0.932 | 1.02 | 0.967 | 0.956 | 0.892 | 0.902 | 0.861 | 0.828 | 0.793 | 0.801 | 0.753 | 0.672 | 0.717 | 0.667
4 | NCI-H1793 | 0.637 | 0.786 | 0.742 | 0.648 | 0.783 | 0.737 | 0.792 | 0.59 | 0.808 | – | 0.864 | 0.848 | 0.739 | 0.27 | – | 0.228 | 0.274 | 0.291
5 | NCI-H1915 | 1.01 | 1.18 | 1 | 1.09 | 1.13 | 1.12 | 1.15 | 1.2 | 0.244 | 0.288 | 0.229 | 0.236 | 0.23 | 0.58 | 0.732 | 0.651 | 0.645 | 0.624
6 | NCI-H1944 | 0.89 | 0.894 | 0.789 | 0.933 | 0.94 | 0.954 | 0.989 | 0.94 | 0.416 | 0.409 | 0.413 | 0.41 | 0.403 | 0.413 | 0.41 | 0.401 | 0.452 | 0.405
7 | NCI-H1975 | 0.871 | 1.17 | 0.859 | 0.896 | 1 | 0.921 | 0.947 | 0.973 | 0.745 | 0.82 | 0.68 | 0.649 | 0.538 | 0.729 | 0.672 | 0.403 | 0.577 | 0.598
8 | NCI-H1993 | – | 0.806 | 0.711 | 0.921 | 0.782 | 0.696 | 0.767 | 0.715 | 1.06 | – | 1.07 | 1.01 | 1.01 | 0.521 | – | – | 0.578 | 0.56
9 | NCI-H2009 | 1.02 | 0.894 | 0.923 | 0.498 | 1.24 | 1.37 | 1.31 | 1.06 | 0.723 | 0.643 | 0.644 | 0.629 | 0.64 | 0.641 | 0.722 | 0.702 | 0.599 | 0.587
10 | NCI-H2023 | 0.806 | 1.14 | 1.02 | 0.867 | 0.921 | 0.863 | 0.887 | 0.931 | 0.491 | 0.458 | 0.458 | 0.446 | 0.43 | 0.375 | 0.501 | 0.414 | 0.392 | 0.353
11 | NCI-H2085 | 0.767 | 0.727 | 0.718 | 0.774 | 0.851 | 1.06 | 0.996 | 0.753 | 0.749 | 0.834 | 0.873 | 0.867 | 0.763 | 0.847 | 0.621 | 0.705 | 0.757 | 1
12 | NCI-H2087 | 1.03 | 1.38 | 1.15 | 0.954 | 1.04 | 1.07 | 1.19 | 1.1 | 0.599 | 0.694 | 0.553 | 0.667 | 0.581 | 0.443 | 0.707 | 0.402 | 0.653 | 0.586
13 | NCI-H2126 | 0.779 | 0.795 | 0.81 | 0.824 | 1.06 | 1.2 | 1.18 | 1.43 | 0.873 | 0.932 | 0.901 | 0.883 | 0.778 | 0.627 | 0.77 | 0.734 | 0.715 | 0.672
14 | NCI-H2170 | 0.257 | 0.271 | 0.276 | 0.266 | 1.03 | 0.88 | 1.06 | 1.02 | 0.59 | 0.573 | 0.619 | 0.601 | 0.539 | 0.675 | 0.7 | 0.669 | 0.709 | 0.748
15 | NCI-H2228 | 0.913 | 0.902 | 0.921 | 0.83 | 0.824 | 0.619 | 0.895 | 0.806 | 0.879 | 0.712 | 0.427 | 0.601 | 0.615 | 0.614 | 0.632 | 0.526 | 0.623 | 0.78
